Values of other authors in patent publication US12150970B2, “Composition for treatment of topical dermatological bacterial skin conditions” (ALPHYN BIOLOGICS, INC., priority 2021, dated 2024).

System: cells
Conditions: compounds evaluated by Chen

Oc1cc(O)c2c(c1)O[C@H](c1ccc(O)c(O)c1)[C@@H](O)C2 [Catechin, catechin]
effect on cell proliferation / healing (in words): little effect

Oc1cc(O)c2c(c1)O[C@H](c1cc(O)c(O)c(O)c1)[C@@H](O)C2 [Gallocatechin, gallocatechin]
effect on cell proliferation / healing (in words): slightly stimulating to cell proliferation

COc1ccc2c(=O)oc3c(OC)cc(CCN(C)C)c4c(=O)oc1c2c34 [Taspine, taspine]
effect on cell proliferation / healing (in words): little healing effects

COc1ccc([C@H]2Oc3c(OC)cc(CCCO)cc3[C@@H]2CO)cc1OC [dimethylcedrusin]
effect on cell proliferation / healing (in words): little healing effects

epicatechin
effect on cell proliferation / healing (in words): little effect

epigallocatechin
effect on cell proliferation / healing (in words): slightly stimulating to cell proliferation
